This is an account of results in paper PMC7497641, “Neurotropic activity and safety of methylene-cycloalkylacetate (MCA) derivative 3-(3-allyl-2-methylenecyclohexyl) propanoic acid” (ACS Chemical Neuroscience, 2020).

The target of one test is T1, Cyclooxygenase 2 (COX 2) (Homo sapiens, UniProt P35354).
T1 construct: purchased BPS Bioscience
The test can be described thus: biochemical. Conditions: Inhibitor, Enzymatic.

Test [1] has as its target T2, 5-Hydroxy-tryptamine (Serotonin) Receptor 3A (HTR3A) (Homo sapiens, UniProt P46098).
T2 construct: host or cells: unnamed DiscoverX cell line
The test can be described thus: SAFETYscan Ion channel assay. The test is classed as cell-based.

The subject of test [2] is dorsal root ganglion (DRG) sensory neurons. The test can be described thus: DRG neurite outgrowth assay. The test is classed as cell-based, mice. The settings on record: HU-MCA-13 5 μM, DRG explants, 5 days. The source says: In the second step, we study the effect of HU-MCA-13 on ex-vivo sensory neuronal cultures obtained from dissociated dorsal root ganglia (DRG), a model in which the neurons tend to extend neurites in culture at a high rate, and all neurite outgrowths are axons, as confirmed by immune staining for cytoskeletal-specific proteins.[27] […] By contrast, NGF induced a strong, 3.5-fold increase in neurite outgrowth to a value of 700 μm (Figure 1 and Figure 3B) and a ratio of 8.5 between the area covered by neurites and that covered by the DRG ganglia (Figure 3C). Similarly, HU-MCA-13 induced a 2.5 fold increase in neurite outgrowth to a value of about 500 μm (Figure 1 and Figure 3B) and a ratio of 5.4 between the area covered by neurites and that covered by the DRG ganglia (Figure 3C). […] These experiments extend the neurotropic effect of MCA-13 observed with PC12 dopaminergic neuronal cultures to DRG sensory neurons.
To perform these experiments, 10 DRGs were excised under sterile conditions and transferred to Dulbecco’s Modified Eagle Medium (DMEM) containing 0.25% Type IV collagenase in at 37 °C for 45 min, followed by a 20 min incubation with 0.025% trypsin in DMEM, to digest the associated connective tissue surrounding the neurons. After plating the ganglia onto collagen (50 μg/mL)/laminin mixture (5 μg/mL)-coated tissue culture wells for 24 h, DRG neurons were cultured for additional 1–7 days in fresh Neurobasal A/B27 medium[27] containing either 50 ng/mL NGF (positive control), medium containing 1% DMSO (negative control) or 5 μM MCA-13. The living cultures were photographed and thereafter, the ganglia were immunostained for β tubulin III and again photographed using a fluorescent microscope. A researcher blinded to the experimental conditions performed image analysis, and the neurite outgrowth length (in micrometers) was measured.[50]

The target in test [3] is T3, Opioid Receptor Kappa 1 (OPRK1) (Homo sapiens, UniProt P41145).
T3 construct: host or cells: cAMP Hunter cell lines
The test can be described thus: SAFETYscan GPCR cAMP. The class given is cell-based.

Test [4] concerns the target T4, Opioid Receptor Delta 1 (OPRD1) (Homo sapiens, UniProt P41143).
T4 construct: host or cells: cAMP Hunter cell lines
Description: SAFETYscan GPCR cAMP. The test is classed as cell-based.

The next test concerns the target T5, Cyclooxygenase 1 (COX 1) (Homo sapiens, UniProt P23219).
T5 construct: purchased BPS Bioscience
The test can be described thus: biochemical. Conditions: Inhibitor, Enzymatic.

Test [5] deals with PC12 dopaminergic cell cultures. The test can be described thus: PC12 neurotropic (neurite outgrowth) assay. The class given is cell-based, rat.
In test [6] the target is T6, Muscarinic acetylcholine Receptor M2 (CHRM2) (Homo sapiens, UniProt P08172).
T6 construct: host or cells: cAMP Hunter cell lines
Description: SAFETYscan GPCR cAMP. The test is classed as cell-based.

Test [7] concerns adult rat spinal cord primary cultures. Description: Spinal cord neurons neurite outgrowth assay. The settings on record: 10 μM HU-MCA-13. The class given is cell-based. The method, then: To study the effect of HU-MCA-13 on adult rat spinal cord primary cultures in vitro, we developed a purification procedure that yields enriched different types of spinal cord neuronal cultures. This neurotropic assay was performed using vehicle 1% DMSO in DMEM as control and 10 μM HU-MCA-13. The results in Figure 1 bottom row and Figure 3D clearly indicate that in control there was very poor spontaneous neurite outgrowth of a total length of about 180 μm and NGF induced neurite outgrowth to a total length of about 800 μm. Similarly, HU-MCA-13 induced a neurite outgrowth of 600 μm. Figure 2B indicates cytoskeletal-tubulin protein expression in the cultured neurons. These findings further extend the neurotropic effect of HU-MCA-13 to spinal cord neurons, in addition to DRGs and PC12 cells.
Spinal cords were isolated from adult rats (4–6 months old), and the meninges were removed from the spinal cord. The spinal cord was then cut into small pieces and collected in cold Hibernate A (Brainbits, Springfield, IL, USA), glutamine (0.5 mM), and B27 (Invitrogen, Carlsbad, CA). […] Neurite outgrowth was measured and presented as mean length of a neurite (microns). To measure neuronal survival, 450 cells were counted in 10 randomly chosen microscope fields of a known area in each of the three dishes per condition using a 20× objective and phase-contrast optics. […]

The mark [8] stands for this setting: 10 μM, read-out: MCA-13 Max. Responce.
Setting [9] is: read-out: RC50 (the source's name).

T2 sequence (P46098 24-478): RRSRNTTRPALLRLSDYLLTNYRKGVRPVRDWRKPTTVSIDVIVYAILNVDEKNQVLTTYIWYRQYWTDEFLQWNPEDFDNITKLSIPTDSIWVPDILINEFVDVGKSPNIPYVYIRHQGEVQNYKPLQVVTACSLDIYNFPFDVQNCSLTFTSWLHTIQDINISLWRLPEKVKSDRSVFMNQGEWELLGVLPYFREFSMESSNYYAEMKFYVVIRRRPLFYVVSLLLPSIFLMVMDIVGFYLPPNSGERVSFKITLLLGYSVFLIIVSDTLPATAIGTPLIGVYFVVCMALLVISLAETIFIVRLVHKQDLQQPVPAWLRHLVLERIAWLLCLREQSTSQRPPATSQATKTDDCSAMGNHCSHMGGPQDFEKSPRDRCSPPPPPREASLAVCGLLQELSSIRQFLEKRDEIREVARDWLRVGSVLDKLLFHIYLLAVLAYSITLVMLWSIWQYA
T6 sequence (P08172 whole entry): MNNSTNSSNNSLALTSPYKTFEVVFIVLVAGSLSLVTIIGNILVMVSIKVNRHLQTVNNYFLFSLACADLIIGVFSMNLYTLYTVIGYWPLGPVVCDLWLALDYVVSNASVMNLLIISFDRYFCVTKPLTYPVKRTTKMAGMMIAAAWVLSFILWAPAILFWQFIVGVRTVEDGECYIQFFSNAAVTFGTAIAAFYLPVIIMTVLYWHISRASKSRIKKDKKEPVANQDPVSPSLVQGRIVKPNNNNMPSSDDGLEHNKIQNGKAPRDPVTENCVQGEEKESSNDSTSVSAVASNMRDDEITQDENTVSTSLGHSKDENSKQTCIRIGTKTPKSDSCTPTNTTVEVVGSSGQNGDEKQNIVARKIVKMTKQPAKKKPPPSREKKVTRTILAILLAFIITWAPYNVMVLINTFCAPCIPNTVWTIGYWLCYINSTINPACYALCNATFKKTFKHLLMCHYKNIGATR
T1 sequence (P35354 18-604): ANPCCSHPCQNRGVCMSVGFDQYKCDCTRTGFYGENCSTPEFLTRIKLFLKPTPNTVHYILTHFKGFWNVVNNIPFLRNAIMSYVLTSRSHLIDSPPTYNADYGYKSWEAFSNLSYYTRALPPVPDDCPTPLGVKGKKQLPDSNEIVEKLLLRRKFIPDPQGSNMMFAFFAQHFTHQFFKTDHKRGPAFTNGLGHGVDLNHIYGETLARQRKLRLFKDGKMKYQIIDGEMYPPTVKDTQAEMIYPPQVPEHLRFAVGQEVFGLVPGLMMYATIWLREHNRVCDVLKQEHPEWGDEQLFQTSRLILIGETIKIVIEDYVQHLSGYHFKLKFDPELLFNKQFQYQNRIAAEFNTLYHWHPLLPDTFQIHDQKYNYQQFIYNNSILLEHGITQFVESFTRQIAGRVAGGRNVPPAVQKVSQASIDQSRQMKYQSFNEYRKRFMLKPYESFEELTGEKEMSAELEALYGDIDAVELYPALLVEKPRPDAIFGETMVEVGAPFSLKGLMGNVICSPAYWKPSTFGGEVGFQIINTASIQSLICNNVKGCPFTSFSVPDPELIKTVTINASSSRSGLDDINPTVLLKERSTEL
T4 sequence (P41143 whole entry): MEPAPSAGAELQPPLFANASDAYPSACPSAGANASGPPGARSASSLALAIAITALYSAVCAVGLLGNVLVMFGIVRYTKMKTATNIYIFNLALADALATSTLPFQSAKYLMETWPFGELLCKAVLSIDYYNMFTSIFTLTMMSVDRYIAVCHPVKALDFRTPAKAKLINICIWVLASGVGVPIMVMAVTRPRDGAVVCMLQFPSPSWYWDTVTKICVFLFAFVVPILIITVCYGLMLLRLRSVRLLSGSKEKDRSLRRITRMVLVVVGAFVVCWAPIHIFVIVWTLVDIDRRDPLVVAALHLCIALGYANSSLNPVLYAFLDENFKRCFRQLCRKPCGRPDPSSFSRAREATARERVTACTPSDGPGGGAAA
T3 sequence (P41145 whole entry): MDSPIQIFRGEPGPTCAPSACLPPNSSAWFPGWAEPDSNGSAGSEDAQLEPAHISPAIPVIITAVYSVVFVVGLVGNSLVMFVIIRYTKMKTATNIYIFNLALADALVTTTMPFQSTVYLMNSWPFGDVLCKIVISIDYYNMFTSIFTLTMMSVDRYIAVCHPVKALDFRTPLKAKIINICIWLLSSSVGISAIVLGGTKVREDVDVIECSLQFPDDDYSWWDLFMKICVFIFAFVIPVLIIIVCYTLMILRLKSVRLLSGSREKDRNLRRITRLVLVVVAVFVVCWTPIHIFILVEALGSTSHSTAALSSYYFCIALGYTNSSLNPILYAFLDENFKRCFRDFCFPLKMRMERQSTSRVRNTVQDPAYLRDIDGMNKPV
T5 sequence (P23219 24-599): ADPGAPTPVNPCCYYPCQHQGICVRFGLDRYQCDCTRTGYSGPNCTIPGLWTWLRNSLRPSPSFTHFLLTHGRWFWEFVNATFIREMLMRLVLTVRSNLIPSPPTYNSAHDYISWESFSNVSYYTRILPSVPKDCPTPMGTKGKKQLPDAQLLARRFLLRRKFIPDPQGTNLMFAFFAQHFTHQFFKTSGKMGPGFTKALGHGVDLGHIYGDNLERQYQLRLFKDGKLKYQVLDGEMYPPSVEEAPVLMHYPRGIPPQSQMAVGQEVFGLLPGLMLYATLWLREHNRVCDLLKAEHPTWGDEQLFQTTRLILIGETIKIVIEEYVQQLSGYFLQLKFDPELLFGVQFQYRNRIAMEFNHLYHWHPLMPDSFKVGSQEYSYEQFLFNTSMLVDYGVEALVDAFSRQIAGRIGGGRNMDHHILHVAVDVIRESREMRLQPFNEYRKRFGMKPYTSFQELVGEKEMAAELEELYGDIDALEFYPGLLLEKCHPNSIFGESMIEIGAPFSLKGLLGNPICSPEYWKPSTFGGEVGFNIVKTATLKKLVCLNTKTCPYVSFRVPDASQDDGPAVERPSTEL

For `C=CCC1CCCC(CCC(=O)O)C1=C` (centres unmarked) [HU-MCA-13, 3-(3-allyl-2-methylenecyclohexyl)propanoic acid], the inhibition at 10 µM at Cyclooxygenase 2 (COX 2) (setting [8]) was 7.99%; on Cyclooxygenase 1 (COX 1) (setting [8]) it was 25%. Moreover, the IC50 (at Cyclooxygenase 2 (COX 2) (setting [9]); in [1]; in [3]; in test [4]; at Cyclooxygenase 1 (COX 1) (setting [9]); in test [6]) was greater than 10 µM throughout. In addition, the EC50 in test [1], in test [3], in [4] and in [6] was greater than 10 µM in each case. Further, the neurite outgrowth length entry in test [2] was “about 500 μm”. Moreover, the “ratio between the area covered by neurites and that covered by the DRG ganglia” value in [2] was 5.4. In test [2] (versus control medium), the “fold increase in neurite outgrowth” value is 2.5 fold. The “neurotropic effect in the presence of Trk A inhibitor K252a” value in [5] (250 nM K252a, 10 μM HU-MCA-13) is “did not abolished”. Besides, the “β tubulin III expression in cell bodies and neurite outgrowths (immunostaining)” value in test [5] (5 μM, 7 days) was “expressed β tubulin III”. Moreover, the neurite outgrowth in [5] (HU-MCA-13 1 μM) is 10–15%. In addition, the “neurite outgrowth, Df” value in [5] (HU-MCA-13 1 μM) came out at 0.04. The “neurite outgrowth total length” value in test [7] came out at 600 μm.
